Patent publication US9469615B2, “Quinoxalines and AZA-quinoxalines as CRTH2 receptor modulators” (Merck Sharp & Dohme Corp., priority 2010, dated 2016)

Target: T1, hCRTH2 (Homo sapiens, UniProt Q9Y5Y4)
T1 construct: expressed in transfected cells; host or cells: HEK (human embryonic kidney) cells expressing hCRTH2; membrane preparation
T1 sequence (Q9Y5Y4 1-395): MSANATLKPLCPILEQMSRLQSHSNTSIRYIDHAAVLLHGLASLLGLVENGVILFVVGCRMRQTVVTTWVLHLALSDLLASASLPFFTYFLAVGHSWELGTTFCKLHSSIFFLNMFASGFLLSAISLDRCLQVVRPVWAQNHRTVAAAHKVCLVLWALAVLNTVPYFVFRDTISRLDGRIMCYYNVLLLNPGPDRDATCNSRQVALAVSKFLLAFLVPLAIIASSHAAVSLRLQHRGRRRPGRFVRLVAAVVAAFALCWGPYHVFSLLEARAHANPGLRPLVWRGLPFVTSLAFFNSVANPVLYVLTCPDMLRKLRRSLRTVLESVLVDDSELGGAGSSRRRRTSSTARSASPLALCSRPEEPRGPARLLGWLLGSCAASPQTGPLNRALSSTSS
Test: Radioligand binding assay ([3H]PGD2 competition, HEK-hCRTH2 membranes)
Conditions: [3H]PGD2 binding
Summary of the method: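 Using membranes of an HEK line stably carrying hCRTH2, ligands were tested against [3H]PGD2 (3.0 nM) in pH 7.4 Tris buffer containing 2 mM MnCl2 and 1 mM EDTA. After one hour at room temperature, filters were washed cold and counted.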

SMILES	Ki (rated A-E (Table A))	Ki (values in text)
CC(CCc1nc2cc(C(=O)N3CCC(c4ccccc4)CC3)ccc2nc1-c1ccc(Cl)cc1)CC(=O)O (stereo not drawn) [compound 17, 3-(4-chlorophenyl)-beta-methyl-7-[(4-phenyl-1-piperidinyl)carbonyl]-2-quinoxalinepentanoic acid]	2.1 to 20 nM	–
CC(CCCc1nc2cc(C(=O)N3CCC(c4ccccc4)CC3)ccc2nc1-c1ccc(C(F)(F)F)cc1)C(=O)O (stereo not drawn) [compound 18, alpha-methyl-7-[(4-phenyl-1-piperidinyl)carbonyl]-3-[4-(trifluoromethyl)phenyl]-2-quinoxalinepentanoic acid]	2.1 to 20 nM	–
O=C(O)Cc1cccc(CCc2nc3cc(C(=O)N4CCC(c5ccccc5)CC4)ccc3nc2-c2ccc(Cl)cc2)c1 [compound 19, 2-(3-(2-(3-(4-chlorophenyl)-7-(4-phenylpiperidine-1-carbonyl)quinoxalin-2-yl)ethyl)phenyl)acetic acid]	2.1 to 20 nM	–
C[C@H](c1ccccc1)N(C)C(=O)c1ccc2nc(-c3ccc(F)cc3)c(CCCCC(=O)O)nc2c1 [compound 21, (R)-5-(3-(4-fluorophenyl)-7-(methyl(1-phenylethyl)carbamoyl)quinoxalin-2-yl)pentanoic acid]	0.1 to 2 nM	–
O=C(NCc1cccc(Cl)c1)c1ccc2nc(-c3ccccc3)c(CCCc3nnn[nH]3)nc2c1 [compound 22]	20.1 to 200 nM	–
O=C(O)CCCc1nc2cc(C(=O)NCc3cccc(Cl)c3)ccc2nc1-c1ccccc1 [compound 23, 7-[[[(3-chlorophenyl)methyl]amino]carbonyl]-3-phenyl-2-quinoxalinebutanoic acid]	20.1 to 200 nM	–
O=C(O)CCCCc1nc2cc(C(=O)N3CC[C@@H](c4ccccc4)C3)c(F)cc2nc1-c1ccc(Cl)cc1 [compound 24, 3-(4-chlorophenyl)-6-fluoro-7-[(3(S)-phenyl-1-pyrrolidinyl)carbonyl]-2-quinoxalinepentanoic acid]	2.1 to 20 nM	–
O=C(O)CCCCc1nc2cc(S(=O)(=O)N3CCC(c4ccccc4)CC3)ccc2nc1-c1ccc(Cl)cc1 [compound 25, 5-(3-(4-chlorophenyl)-7-(4-phenylpiperidin-1-ylsulfonyl)quinoxalin-2-yl)pentanoic acid]	201 to 700 nM	–
O=C(O)CCCCc1nc2cc(C(=O)N3CCC(c4ccccc4)C3)ccc2nc1-c1ccc(C(F)(F)F)cc1 (stereo not shown) [compound 26, 5-(7-(3-Phenylpyrrolidine-1-carbonyl)-3-(4-(trifluoromethyl)phenyl)-quinoxalin-2-yl)pentanoic acid]	0.1 to 2 nM	–
O=C(O)CCOCc1nc2cc(C(=O)N3CCC(c4ccccc4)CC3)ccc2nc1-c1ccc(Cl)cc1 [compound 29, 3-((3-(4-chlorophenyl)-7-(4-phenylpiperidine-1-carbonyl)quinoxalin-2-yl)methoxy)propanoic acid]	2.1 to 20 nM	–
O=C(O)C1CC(Cc2nc3cc(C(=O)N4CCC(c5ccccc5)CC4)ccc3nc2-c2ccc(Cl)cc2)C1 (stereo not shown) [compound 30, 3-((3-(4-chlorophenyl)-7-(4-phenylpiperidine-1-carbonyl)quinoxalin-2-yl)methyl)cyclobutanecarboxylic acid]	2.1 to 20 nM	–
O=C(O)CCCCc1nc2cc(C(=O)N3CC(c4nc5ccccc5[nH]4)C3)ccc2nc1-c1ccc(F)cc1 [compound 31, 5-(7-(3-(1H-benzo[d]imidazol-2-yl)azetidine-1-carbonyl)-3-(4-fluorophenyl)quinoxalin-2-yl)pentanoic acid]	2.1 to 20 nM	–

Second part, the molecule after the results:

Ki (rated A-E (Table A))	Ki (values in text)	SMILES
2.1 to 20 nM	–	O=C(O)Cc1cccc(CCCc2nc3cc(C(=O)N4CCC(c5ccccc5)CC4)ccc3nc2-c2ccc(Cl)cc2)c1 [compound 32, 2-(3-(3-(3-(4-chlorophenyl)-7-(4-phenylpiperidine-1-carbonyl)quinoxalin-2-yl)propyl)phenyl)acetic acid]
20.1 to 200 nM	–	O=C(O)CCCC(O)c1nc2cc(C(=O)N[C@@H]3CCCc4ccccc43)ccc2nc1-c1ccc(Cl)cc1 (stereo partly drawn) [compound 33, 5-(3-(4-chlorophenyl)-7-(((R)-1,2,3,4-tetrahydronaphthalen-1-yl)carbamoyl)quinoxalin-2-yl)-5-hydroxypentanoic acid]
201 to 700 nM	–	O=C(O)CCCC(=O)c1nc2cc(C(=O)N[C@@H]3CCCc4ccccc43)ccc2nc1-c1ccc(Cl)cc1 [compound 34, (R)-5-(3-(4-chlorophenyl)-7-((1,2,3,4-tetrahydronaphthalen-1-yl)carbamoyl)quinoxalin-2-yl)-5-oxopentanoic acid]
20.1 to 200 nM	–	O=C(O)CCCC(F)c1nc2cc(C(=O)N[C@@H]3CCCc4ccccc43)ccc2nc1-c1ccc(Cl)cc1 (stereo partly drawn) [compound 35, 5-(3-(4-chlorophenyl)-7-(((R)-1,2,3,4-tetrahydronaphthalen-1-yl)carbamoyl)quinoxalin-2-yl)-5-fluoropentanoic acid]
701 to 2300 nM	716 nM	C[C@@H](NC(=O)c1ccc2nc(-c3ccccc3)c(CCCC(=O)O)nc2c1)c1ccc(F)cc1 [compound 36, (R)-4-(7-((1-(4-fluorophenyl)ethyl)carbamoyl)-3-phenylquinoxalin-2-yl)butanoic acid]
20.1 to 200 nM	–	C[C@@H](NC(=O)c1ccc2nc(-c3ccccc3)c(CCCC(F)(F)C(=O)O)nc2c1)c1ccc(F)cc1 [compound 37, (R)-2,2-difluoro-5-(7-((1-(4-fluorophenyl)ethyl)carbamoyl)-3-phenylquinoxalin-2-yl)pentanoic acid]
2.1 to 20 nM	8 nM	C[C@@H]1CN(c2ccc(F)cc2)CCN1C(=O)c1ccc2nc(-c3ccccc3)c(CCCCC(=O)O)nc2c1 [compound 39, (R)-5-(7-(4-(4-fluorophenyl)-2-methylpiperazine-1-carbonyl)-3-phenylquinoxalin-2-yl)pentanoic acid]
2.1 to 20 nM	–	O=C(O)CCCCc1nc2cc(C(=O)N[C@@H]3CCCc4cc(F)ccc43)ccc2nc1-c1ccccc1 [compound 40, (R)-5-(7-((6-fluoro-1,2,3,4-tetrahydronaphthalen-1-yl)carbamoyl)-3-phenylquinoxalin-2-yl)pentanoic acid]
2.1 to 20 nM	8.8 nM	C[C@@H]1CN(c2ccccc2)CCN1C(=O)c1ccc2nc(-c3ccccc3)c(CCCCC(=O)O)nc2c1 [compound 41, (R)-5-(7-(2-methyl-4-phenylpiperazine-1-carbonyl)-3-phenylquinoxalin-2-yl)pentanoic acid]
2.1 to 20 nM	–	O=C(O)Cc1cc(F)cc(CCc2nc3cc(C(=O)N4CCC(c5ccccc5)CC4)ccc3nc2-c2ccc(Cl)cc2)c1 [compound 42, 2-(3-(2-(3-(4-chlorophenyl)-7-(4-phenylpiperidine-1-carbonyl)quinoxalin-2-yl)ethyl)-5-fluorophenyl)acetic acid]
2.1 to 20 nM	–	C[C@@H]1CN(c2ccc(F)cc2)CCN1C(=O)c1ccc2nc(-c3ccccc3)c(NCCCC(=O)O)nc2c1 [compound 44, (R)-4-((7-(4-(4-fluorophenyl)-2-methylpiperazine-1-carbonyl)-3-phenylquinoxalin-2-yl)amino)butanoic acid]
0.1 to 2 nM	–	O=C(O)CCCCc1nc2cc(C(=O)NCc3ccc(Cl)cc3)ccc2nc1-c1ccc(F)cc1 [compound 100]
2.1 to 20 nM	–	O=C(O)CCCCc1nc2cc(C(=O)NCc3cccc(Cl)c3)ccc2nc1-c1ccc(F)cc1 [compound 101, 7-[[[(3-chlorophenyl)methyl]amino]carbonyl]-3-(4-fluorophenyl)-2-quinoxalinepentanoic acid]
